Experiment in all cases: NCI anticancer screen, dose series, 48 h
In assay [1] the test system is ACHN renal.
In assay [2] the test system is CCRF-CEM leukemia.
Assay [3] concerns DU-145 prostate.
The subject of assay [4] is HCT-15 colon.
The test system of assay [5] is HOP-62 NSCLC.
For assay [6], the system named is LOX IMVI melanoma.
Assay [7] has as its system MALME-3M melanoma.
Assay [8] relates to MDA-MB-231 breast.
Assay [9] relates to MDA-MB-435.
In assay [10] the test system is NCI-H23 lung.
For assay [11], the system named is NCI-H522 lung.
Assay [12] relates to OVCAR-4 ovarian.
The subject of assay [13] is PC-3 prostate.
For assay [14], the system named is RXF 393 renal.
Assay [15] concerns SF-295 CNS.
The test system of assay [16] is SN12C renal.
Assay [17] relates to SW-620 colon.
In assay [18] the test system is T-47D breast.
The subject of assay [19] is TK-10 renal.
In assay [20] the test system is UACC-62 melanoma.

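Five concentrations, 48 hours, 96-well plates. TGI marks complete inhibition of growth.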

In the case of `NC(=O)CNC(=O)[C@@H]1C[C@@H](OCCC(=O)O)CN1C(=O)OCc1ccccc1`, the TGI in assay [1], in [2], in assay [3], in [4], in [5] and in [6] was over 100 µM in each case. For the same compound, the TGI in [7], in assay [8], in assay [9], in assay [10], in assay [11] and in assay [12] was over 100 µM throughout. Besides, the TGI in assay [13], in [14], in assay [15], in assay [16], in [17] and in assay [18] was over 100 µM in each case. For the same compound, the TGI in [19] and in assay [20] was over 100 µM throughout.
For the compound `CC(=O)N(C(C)=O)n1nc2c(n1)C(=O)c1ccccc1C2=O`, the TGI in assay [1], in [2], in [3], in [4], in [5] and in assay [6] was over 100 µM in each case. In addition, the TGI in assay [7], in assay [8], in [9], in [10], in assay [11] and in assay [12] was over 100 µM each time. In addition, the TGI in assay [13], in [14], in assay [15], in [16], in [17] and in [18] was over 100 µM in each case. For the same compound, the TGI in [19] and in [20] was over 100 µM throughout.
Turning to `Cc1[nH]c(=O)nc(N(CCO)/N=C/c2ccc(Cl)cc2)c1C(=O)Nc1ccc(Cl)cc1`, the TGI in [1], in assay [2], in assay [3], in assay [4], in [5] and in [6] was over 100 µM each time. In addition, the TGI was 68.3 µM in [7]; over 100 µM in [8]; over 100 µM in [9]; over 100 µM in assay [10]; over 100 µM in [11]; over 100 µM in assay [12]. Further, the TGI in assay [13] was over 100 µM; in [14], 76.3 µM; in [15], over 100 µM; in assay [16] it was over 100 µM; in [17], over 100 µM; in assay [18] it was over 100 µM. Also, the TGI in assay [19] and in assay [20] was over 100 µM in each case.
For the compound `Oc1ccccc1-c1nn2c(CCCCCCCCc3nnc4sc(-c5ccccc5O)nn34)nnc2s1`, the TGI was over 100 µM in [1]; 39.3 µM in [2]; over 75.5 µM in assay [3]; over 100 µM in assay [4]; over 92.2 µM in assay [5]; over 64.1 µM in assay [6]. Moreover, the TGI in assay [7] is over 100 µM; in assay [8], over 100 µM; in assay [9], over 100 µM; in assay [10], over 100 µM; in [11], 82.5 µM; in assay [12], over 100 µM. In addition, the TGI in assay [13] is over 100 µM; in assay [14], over 64.1 µM; in [15], over 100 µM; in assay [16], over 100 µM; in [17], over 100 µM; in [18], 52.1 µM. The TGI in assay [19] and in assay [20] was over 100 µM each time.
Turning to `Cc1ccc(C)c(COCCOCn2c(=O)[nH]c(=O)c3cc(Br)ccc32)c1`, the TGI in assay [1], in [2], in [3], in assay [4], in [5] and in assay [6] was over 100 µM in each case. Further, the TGI in assay [7], in [8], in assay [9], in assay [10], in assay [11] and in assay [12] was over 100 µM in each case. The TGI in assay [13], in assay [14], in assay [15], in assay [16], in assay [17] and in assay [18] was over 100 µM each time. Also, the TGI in assay [19] and in assay [20] was over 100 µM each time.
Take `COc1ccc(/C=C(/c2ccccc2)c2c(C)cc(C)c(/C(=C\c3ccc(OC)cc3)c3ccccc3)c2N=Nc2cc(C)cc(C)c2)cc1`: the TGI in assay [1], in [2], in [3], in assay [4], in assay [5] and in [6] was over 100 µM each time. Besides, the TGI in [7] is 56.6 µM; in assay [8], 16 µM; in assay [9], over 62.2 µM; in [10], over 83.8 µM; in assay [11], over 64.1 µM; in assay [12], over 100 µM. For the same compound, the TGI in assay [13] was over 100 µM; in [14], over 95.9 µM; in assay [15] it was over 100 µM; in [16] it was 23.4 µM; in [17], over 100 µM; in [18], over 100 µM. Besides, the TGI in [19] is over 74.4 µM; in [20], over 100 µM.
Regarding `Cc1cc(C)c2c(=O)cc(-c3ccc4ccccc4c3)[nH]c2n1`, the TGI in assay [1] was over 100 µM; in [2] it was 37.7 µM; in assay [3], over 100 µM; in [4], over 100 µM; in assay [5], over 93.8 µM; in [6], over 74.9 µM. The TGI in assay [7] was over 100 µM; in assay [8], over 100 µM; in assay [9], 12 µM; in assay [10], over 100 µM; in assay [11], 72.5 µM; in [12], over 100 µM. The TGI is over 100 µM in assay [13]; over 100 µM in [14]; over 93 µM in assay [15]; over 100 µM in [16]; over 100 µM in [17]; over 100 µM in assay [18]. Further, the TGI in assay [19] and in assay [20] was over 100 µM in each case.

For the origin of these results see PubChem BioAssay (NCI).
